In PubChem BioAssay (NCI):
Values joined by “and” are separate entries in the source; they are usually repeats but may differ in a detail not shown here. Identical values can stand only once.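 In this assay, cells in 96-well plates receive the compound at five concentrations for 48 hours. Endpoints are linearly interpolated between the surrounding concentrations. The concentration for 50% growth inhibition is given as GI50. TGI: total growth inhibition.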

How the values were obtained:
Assay in all cases: inhibition of tumour cell growth, NCI panel, 48 h
[1] = system: CCRF-CEM leukemia
[2] = system: M14 melanoma
[3] = system: HL-60(TB) leukemia
[4] = system: HCT-116 colon
[5] = system: COLO 205 colon
[6] = system: OVCAR-3 ovarian
[7] = system: SW-620 colon
[8] = system: OVCAR-5 ovarian

O=C(/C=C/c1ccco1)Nc1ncc(Cc2cccc(C(F)(F)F)c2)s1
GI50 [1]: 0.0682 µM | TGI [1]: > 47.8 µM | GI50 [2]: 0.0572 µM | TGI [2]: 3.18 µM | GI50 [3]: 0.0604 µM | TGI [3]: 0.19 µM | GI50 [4]: 0.0438 µM | TGI [4]: > 32.8 µM | GI50 [5]: 0.0433 µM | TGI [5]: 0.166 µM | GI50 [6]: 0.0386 µM | TGI [6]: 0.45 µM | GI50 [7]: 0.0422 µM | TGI [7]: > 100 µM | GI50 [8]: 0.353 µM | TGI [8]: 11.8 µM

CN(C)c1ccc(/C=C(\C#N)c2ccccc2)cc1
GI50 [1]: 0.332 µM and 0.553 µM and 0.595 µM | TGI [1]: 13.4 µM and > 100 µM | GI50 [2]: 0.329 µM and 0.344 µM and 0.304 µM | TGI [2]: > 100 µM | GI50 [3]: 0.218 µM and 0.34 µM | TGI [3]: 11.8 µM | GI50 [4]: 0.384 µM and 0.441 µM and 0.414 µM | TGI [4]: > 60.6 µM and > 100 µM and 29.6 µM | GI50 [5]: 0.384 µM and 0.42 µM and 0.353 µM | TGI [5]: 2.32 µM and 5.35 µM and 2.76 µM | GI50 [6]: 0.272 µM and 0.398 µM and 0.365 µM | TGI [6]: 1.22 µM and 3.23 µM and 4.25 µM | GI50 [7]: 0.28 µM and 0.447 µM and 0.444 µM | TGI [7]: > 100 µM | GI50 [8]: 4.51 µM and 17.2 µM and 10.3 µM | TGI [8]: > 100 µM

O=C(O)c1ccc(NCc2nc3ccccc3[nH]2)cc1
GI50 [1]: > 100 µM | TGI [1]: > 100 µM | GI50 [2]: > 100 µM | TGI [2]: > 100 µM | GI50 [3]: > 100 µM | TGI [3]: > 100 µM | GI50 [4]: > 100 µM | TGI [4]: > 100 µM | GI50 [5]: > 100 µM | TGI [5]: > 100 µM | GI50 [6]: > 100 µM | TGI [6]: > 100 µM | GI50 [7]: > 100 µM | TGI [7]: > 100 µM | GI50 [8]: > 100 µM | TGI [8]: > 100 µM

COc1cccc(CCNC(=O)CC(c2ccccc2)(c2ccccc2)c2ccccc2)c1
GI50 [1]: 8.16 µM | TGI [1]: > 100 µM | GI50 [3]: 17.5 µM | TGI [3]: > 100 µM | GI50 [4]: 2.58 µM | TGI [4]: 26.7 µM | GI50 [5]: 12.8 µM | TGI [5]: > 100 µM | GI50 [6]: 4.77 µM | TGI [6]: > 100 µM | GI50 [7]: 85.3 µM | TGI [7]: > 100 µM | GI50 [8]: 11.7 µM | TGI [8]: > 100 µM

CC(C)n1nc(C#Cc2cccc(O)c2)c2c(N)ncnc21
GI50 [1]: 1.65 µM and 1.15 µM | TGI [1]: 50 µM and 13.3 µM | GI50 [2]: 0.693 µM and 0.397 µM | TGI [2]: 4.68 µM and 2.42 µM | GI50 [3]: 0.832 µM and 0.217 µM | TGI [3]: 10.8 µM and 20.2 µM | GI50 [4]: 1.17 µM and 0.586 µM | TGI [4]: 7.78 µM and 10.8 µM | GI50 [5]: 1.53 µM and 1.89 µM | TGI [5]: 12.7 µM and 13.2 µM | GI50 [6]: 1.32 µM and 1.7 µM | TGI [6]: 5.62 µM and 7.63 µM | GI50 [7]: 2.08 µM and 1.72 µM | TGI [7]: 50 µM and 31.9 µM | GI50 [8]: 1.79 µM and 1.62 µM | TGI [8]: 16.4 µM and 8 µM

Cc1cc(I)cc(CNCCN2CCOCC2)c1O
GI50 [2]: 26.9 µM | TGI [2]: > 100 µM | GI50 [3]: > 100 µM | TGI [3]: > 100 µM | GI50 [4]: 37.2 µM | TGI [4]: > 100 µM | GI50 [5]: > 100 µM | TGI [5]: > 100 µM | GI50 [6]: > 100 µM | TGI [6]: > 100 µM | GI50 [7]: > 100 µM | TGI [7]: > 100 µM | GI50 [8]: 59.8 µM | TGI [8]: > 100 µM

COc1ccc(C2CC(c3ccccc3)=NN2C(=O)c2cc(OC)c(OC)c(OC)c2)cc1O (stereo not given)
GI50 [1]: 0.473 µM | TGI [1]: > 31.9 µM | GI50 [2]: 0.299 µM | TGI [2]: 3.99 µM | GI50 [3]: 0.244 µM | TGI [3]: 1.05 µM | GI50 [4]: 0.313 µM | TGI [4]: 3.05 µM | GI50 [5]: 2.96 µM | TGI [5]: 10.4 µM | GI50 [6]: 0.326 µM | TGI [6]: 3.99 µM | GI50 [7]: 0.415 µM | TGI [7]: > 55.7 µM | GI50 [8]: 8.43 µM | TGI [8]: > 65.5 µM

CC(=O)OC1CC2C(C)(C)CCC[C@]2(C)C2=C1C(O)=C(C(C)C)C(=O)C2=O (stereo not given in full)
GI50 [1]: 1.12 µM | TGI [1]: 7.03 µM | GI50 [2]: 0.442 µM | TGI [2]: 1.83 µM | GI50 [3]: 0.613 µM | TGI [3]: 4.23 µM | GI50 [4]: 0.499 µM | TGI [4]: 1.99 µM | GI50 [5]: 1.47 µM | TGI [5]: 3.33 µM | GI50 [6]: 1.52 µM | TGI [6]: 4.53 µM | GI50 [7]: 0.911 µM | TGI [7]: 2.92 µM | GI50 [8]: 1.44 µM | TGI [8]: 3.79 µM

Cc1cc(O[C@@H]2O[C@@H](C)[C@H](O)[C@@H](O)[C@H]2O)c2c3c(c(O[C@@H]4O[C@@H](C)[C@H](O)[C@@H](O)[C@H]4O)cc2c1)C(=O)c1c(O)cccc1C3=O
GI50 [1]: > 30 µM | TGI [1]: > 30 µM | GI50 [2]: > 30 µM | TGI [2]: > 30 µM | GI50 [3]: > 30 µM | TGI [3]: > 30 µM | GI50 [4]: > 30 µM | TGI [4]: > 30 µM | GI50 [5]: > 30 µM | TGI [5]: > 30 µM | GI50 [6]: > 30 µM | TGI [6]: > 30 µM | GI50 [7]: > 30 µM | TGI [7]: > 30 µM | GI50 [8]: > 30 µM | TGI [8]: > 30 µM

[N-]=[N+]=NCCCn1c2c(c3ccc([N+](=O)[O-])cc3c1=O)C(=O)c1cc(I)ccc1-2
GI50 [1]: 0.416 µM | TGI [1]: > 100 µM | GI50 [2]: 3.29 µM | TGI [2]: 22.4 µM | GI50 [3]: 3.79 µM | TGI [3]: 26.3 µM | GI50 [4]: 2.15 µM | TGI [4]: 26.4 µM | GI50 [5]: 40.4 µM | TGI [5]: > 100 µM | GI50 [6]: 18.3 µM | TGI [6]: > 100 µM | GI50 [7]: 1.72 µM | TGI [7]: > 100 µM | GI50 [8]: 41.2 µM | TGI [8]: > 100 µM

COc1ccc(N=N/C(=N\NC(=O)c2cc(Br)ccc2O)c2ccc(N(CCC#N)CCC#N)cc2OC)cc1
GI50 [1]: 57.1 µg/mL | TGI [1]: > 150 µg/mL | GI50 [2]: 83.7 µg/mL | TGI [2]: > 150 µg/mL | GI50 [3]: 56.7 µg/mL | TGI [3]: > 150 µg/mL | GI50 [4]: 60.6 µg/mL | TGI [4]: > 150 µg/mL | GI50 [5]: 50.6 µg/mL | TGI [5]: > 150 µg/mL | GI50 [6]: 51.4 µg/mL | TGI [6]: > 150 µg/mL | GI50 [7]: > 150 µg/mL | TGI [7]: > 150 µg/mL | GI50 [8]: 108 µg/mL | TGI [8]: > 150 µg/mL

CCC(CC)c1cc(N[C@H]2CC[C@H](N)C2)n2nccc2n1
GI50 [1]: 1.08 µM | TGI [1]: > 100 µM | GI50 [2]: 1.74 µM | TGI [2]: 5.4 µM | GI50 [3]: 0.324 µM | TGI [3]: 14.9 µM | GI50 [4]: 0.402 µM | TGI [4]: > 100 µM | GI50 [5]: 0.732 µM | TGI [5]: 2.41 µM | GI50 [6]: 1.01 µM | TGI [6]: > 100 µM | GI50 [7]: 0.626 µM | TGI [7]: > 100 µM | GI50 [8]: 0.533 µM | TGI [8]: > 100 µM

CCC1=C[C@@H]2CN(C1)Cc1c([nH]c3ccccc13)[C@@](C(=O)OC)(c1cc3c(cc1OC)N(C)[C@H]1[C@@](O)(C(=O)OC)[C@H](OC(C)=O)[C@]4(CC)C=CCN5CC[C@]31[C@@H]54)C2
GI50 [1]: < 0.01 µM | TGI [1]: 0.71 µM | GI50 [2]: 0.0103 µM | TGI [2]: 1.01 µM | GI50 [3]: < 0.01 µM | TGI [3]: < 0.01 µM | GI50 [4]: < 0.01 µM | TGI [4]: > 40.4 µM | GI50 [5]: < 0.01 µM | TGI [5]: 0.0775 µM | GI50 [6]: < 0.01 µM | TGI [6]: < 0.01 µM | GI50 [7]: < 0.01 µM | TGI [7]: 17.9 µM | GI50 [8]: < 0.01 µM | TGI [8]: 27.2 µM

NS(=O)(=O)c1ccc(N=Nc2c(O)[nH]c3ccc(C(=O)NCCc4cnc[nH]4)cc23)cc1
GI50 [1]: > 25 µM | TGI [1]: > 25 µM | GI50 [2]: > 25 µM | TGI [2]: > 25 µM | GI50 [3]: > 25 µM | TGI [3]: > 25 µM | GI50 [4]: > 25 µM | TGI [4]: > 25 µM | GI50 [5]: > 25 µM | TGI [5]: > 25 µM | GI50 [6]: > 25 µM | TGI [6]: > 25 µM | GI50 [7]: > 25 µM | TGI [7]: > 25 µM | GI50 [8]: > 25 µM | TGI [8]: > 25 µM
